Source: ChEMBL document CHEMBL5291721, “A preclinical secondary pharmacology resource illuminates target-adverse drug reaction associations of marketed drugs” (Nat Commun, 2023)

Tests used:
[1] = molecular target: T1, Peroxisome proliferator-activated receptor alpha (Homo sapiens, UniProt Q07869); type: functional
T1 sequence (Q07869 whole entry): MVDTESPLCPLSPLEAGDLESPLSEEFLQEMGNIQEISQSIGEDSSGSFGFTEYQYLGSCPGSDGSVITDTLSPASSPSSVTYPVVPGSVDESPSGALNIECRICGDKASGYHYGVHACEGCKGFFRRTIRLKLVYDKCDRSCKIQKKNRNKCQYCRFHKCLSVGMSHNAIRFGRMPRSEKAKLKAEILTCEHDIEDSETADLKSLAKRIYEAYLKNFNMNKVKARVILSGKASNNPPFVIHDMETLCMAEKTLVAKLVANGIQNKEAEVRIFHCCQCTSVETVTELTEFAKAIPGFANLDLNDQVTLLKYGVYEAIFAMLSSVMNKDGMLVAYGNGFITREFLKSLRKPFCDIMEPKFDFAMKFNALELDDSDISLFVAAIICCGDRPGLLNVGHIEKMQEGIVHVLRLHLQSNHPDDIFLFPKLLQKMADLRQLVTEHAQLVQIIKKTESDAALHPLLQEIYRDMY

[2] = molecular target: T2, Prostaglandin G/H synthase 1 (Rattus norvegicus, UniProt Q63921); type: functional
T2 sequence (Q63921 whole entry): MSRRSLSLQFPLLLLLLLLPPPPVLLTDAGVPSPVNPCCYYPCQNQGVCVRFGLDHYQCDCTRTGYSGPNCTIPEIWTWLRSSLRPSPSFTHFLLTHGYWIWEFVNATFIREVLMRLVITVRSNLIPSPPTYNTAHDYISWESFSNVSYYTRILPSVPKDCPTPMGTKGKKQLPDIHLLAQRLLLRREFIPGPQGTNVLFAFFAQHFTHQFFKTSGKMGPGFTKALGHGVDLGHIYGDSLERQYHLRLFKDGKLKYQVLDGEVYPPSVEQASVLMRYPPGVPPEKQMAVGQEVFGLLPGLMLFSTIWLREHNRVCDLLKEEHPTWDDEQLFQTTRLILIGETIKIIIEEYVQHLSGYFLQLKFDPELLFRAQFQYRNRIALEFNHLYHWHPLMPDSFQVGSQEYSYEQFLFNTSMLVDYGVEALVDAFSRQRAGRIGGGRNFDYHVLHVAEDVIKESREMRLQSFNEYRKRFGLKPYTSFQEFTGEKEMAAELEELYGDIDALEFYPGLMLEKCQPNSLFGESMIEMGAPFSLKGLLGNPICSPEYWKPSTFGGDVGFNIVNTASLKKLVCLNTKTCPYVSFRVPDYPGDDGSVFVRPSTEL

[3] = molecular target: D(3) dopamine receptor (Homo sapiens, UniProt P35462)
[4] = molecular target: T3, Alpha-2A adrenergic receptor (Homo sapiens, UniProt P08913)
T3 sequence (P08913 whole entry): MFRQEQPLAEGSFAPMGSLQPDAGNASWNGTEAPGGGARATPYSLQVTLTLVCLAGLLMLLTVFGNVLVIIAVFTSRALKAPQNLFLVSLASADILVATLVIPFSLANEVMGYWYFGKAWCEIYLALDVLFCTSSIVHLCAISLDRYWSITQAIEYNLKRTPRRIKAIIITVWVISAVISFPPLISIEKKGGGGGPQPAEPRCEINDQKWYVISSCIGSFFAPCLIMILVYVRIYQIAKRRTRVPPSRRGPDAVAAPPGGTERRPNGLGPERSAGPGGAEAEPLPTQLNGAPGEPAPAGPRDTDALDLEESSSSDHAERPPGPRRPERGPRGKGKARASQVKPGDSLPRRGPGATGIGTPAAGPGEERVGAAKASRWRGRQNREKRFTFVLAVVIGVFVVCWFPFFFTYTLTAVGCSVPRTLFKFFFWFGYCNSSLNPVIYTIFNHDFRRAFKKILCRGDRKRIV

[5] = molecular target: T4, Alpha-1A adrenergic receptor (Homo sapiens, UniProt P35348); type: functional, cell-based
T4 sequence (P35348 whole entry): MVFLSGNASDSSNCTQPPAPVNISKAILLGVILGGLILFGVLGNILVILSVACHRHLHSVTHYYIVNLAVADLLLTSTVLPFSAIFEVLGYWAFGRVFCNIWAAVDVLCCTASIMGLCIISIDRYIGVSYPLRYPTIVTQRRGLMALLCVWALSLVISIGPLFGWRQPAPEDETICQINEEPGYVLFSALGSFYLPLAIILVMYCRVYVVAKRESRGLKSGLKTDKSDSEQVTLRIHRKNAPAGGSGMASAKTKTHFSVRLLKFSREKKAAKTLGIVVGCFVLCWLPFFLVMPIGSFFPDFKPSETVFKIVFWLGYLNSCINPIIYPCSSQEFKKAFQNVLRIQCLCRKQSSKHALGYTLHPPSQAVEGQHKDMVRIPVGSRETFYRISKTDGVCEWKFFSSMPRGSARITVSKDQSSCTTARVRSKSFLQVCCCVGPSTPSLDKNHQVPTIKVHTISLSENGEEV

[6] = molecular target: T5, Androgen receptor (Homo sapiens, UniProt P10275)
T5 sequence (P10275 whole entry): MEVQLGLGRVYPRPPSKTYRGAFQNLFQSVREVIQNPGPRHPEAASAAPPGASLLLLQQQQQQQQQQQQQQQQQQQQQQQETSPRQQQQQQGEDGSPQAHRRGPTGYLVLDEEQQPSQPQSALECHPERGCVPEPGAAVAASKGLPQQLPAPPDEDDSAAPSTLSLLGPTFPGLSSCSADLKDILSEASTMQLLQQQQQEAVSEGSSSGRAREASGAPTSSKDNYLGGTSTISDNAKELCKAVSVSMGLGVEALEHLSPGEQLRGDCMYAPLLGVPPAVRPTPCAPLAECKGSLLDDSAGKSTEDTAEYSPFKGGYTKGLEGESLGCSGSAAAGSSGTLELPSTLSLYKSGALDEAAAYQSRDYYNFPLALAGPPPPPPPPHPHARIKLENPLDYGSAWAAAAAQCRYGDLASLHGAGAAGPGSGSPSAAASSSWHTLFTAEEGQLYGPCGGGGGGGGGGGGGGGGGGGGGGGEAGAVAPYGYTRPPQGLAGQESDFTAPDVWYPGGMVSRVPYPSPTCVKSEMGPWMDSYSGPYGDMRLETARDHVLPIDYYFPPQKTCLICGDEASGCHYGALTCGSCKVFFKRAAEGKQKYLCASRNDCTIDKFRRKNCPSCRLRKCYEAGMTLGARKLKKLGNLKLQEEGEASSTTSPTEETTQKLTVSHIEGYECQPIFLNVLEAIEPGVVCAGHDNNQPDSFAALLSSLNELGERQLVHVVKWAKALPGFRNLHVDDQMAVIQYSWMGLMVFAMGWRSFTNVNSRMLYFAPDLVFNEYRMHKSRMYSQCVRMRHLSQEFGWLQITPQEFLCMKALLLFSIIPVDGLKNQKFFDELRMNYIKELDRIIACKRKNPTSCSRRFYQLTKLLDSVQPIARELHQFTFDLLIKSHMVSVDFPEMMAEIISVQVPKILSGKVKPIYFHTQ
Further: assay procedure not described here.

Chain of D(3) dopamine receptor (P35462 whole entry): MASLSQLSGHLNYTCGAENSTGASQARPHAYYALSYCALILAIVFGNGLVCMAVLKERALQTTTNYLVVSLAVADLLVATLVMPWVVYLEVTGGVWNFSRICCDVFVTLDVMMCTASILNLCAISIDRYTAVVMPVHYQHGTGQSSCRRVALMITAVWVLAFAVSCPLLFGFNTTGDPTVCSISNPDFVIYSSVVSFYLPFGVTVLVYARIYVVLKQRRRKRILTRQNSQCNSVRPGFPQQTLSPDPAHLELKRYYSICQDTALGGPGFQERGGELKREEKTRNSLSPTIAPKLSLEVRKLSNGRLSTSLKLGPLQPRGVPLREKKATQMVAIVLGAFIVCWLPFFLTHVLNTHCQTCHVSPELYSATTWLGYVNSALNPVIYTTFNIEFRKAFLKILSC

Compound `CCOC(=O)C(C)(C)Oc1ccc(Cl)cc1` [CLOFIBRATE] has an AC50 [1] of over 30 µM.
For `CCOC(=O)c1ncn2c1CN(C)C(=O)c1cc(F)ccc1-2` [FLUMAZENIL], the AC50 [2] was over 30 µM.
In the case of `CCN(CC)CCCC(C)Nc1c2ccc(Cl)cc2nc2ccc(OC)cc12` (stereo unspecified) [QUINACRINE], the AC50 [3] is reported as 7.05 µM, the AC50 [4] is reported as 11.9 µM and the AC50 [5] is reported as over 1 µM. For the same compound, the AC50 [6] was over 30 µM.
